Laboratory results from ChEMBL document CHEMBL3856212, “Synthesis, anti-proliferative and genotoxicity studies of 6-chloro-5-(2-substituted-ethyl)-1,3-dihydro-2H-indol-2-ones and 6-chloro-5-(2-chloroethyl)-3-(alkyl/ary-2-ylidene)indolin-2-ones” (Eur J Med Chem, 2016).

How the values were obtained:
[1] = Cytotoxicity against human MCF7 cells assessed as assessed as growth inhibition at 10^-5 M after 48 hrs by SRB assay relative to control; format: functional; conditions: MCF7, 48 h, read-out: GI
[2] = Cytotoxicity against human 786-0 cells assessed as growth inhibition after 48 hrs by SRB assay; format: functional; conditions: 786-0, 48 h
[3] = Cytotoxicity against human COLO205 cells assessed as growth inhibition after 48 hrs by SRB assay; format: functional; conditions: COLO 205, 48 h
[4] = Cytotoxicity against human HCT116 cells assessed as growth inhibition after 48 hrs by SRB assay; format: functional; conditions: HCT-116, 48 h
[5] = Cytotoxicity against human M14 cells assessed as assessed as growth inhibition at 10^-5 M after 48 hrs by SRB assay relative to control; format: functional; conditions: M14, 48 h, read-out: GI
[6] = Cytotoxicity against human NCI-ADR-RES cells assessed as growth inhibition after 48 hrs by SRB assay; format: functional
[7] = Cytotoxicity against human Caki1 cells assessed as growth inhibition after 48 hrs by SRB assay; format: functional; conditions: CAKI-1, 48 h
[8] = Cytotoxicity against human SR cells assessed as growth inhibition after 48 hrs by SRB assay; format: functional
[9] = Cytotoxicity against human M14 cells assessed as growth inhibition after 48 hrs by SRB assay; format: functional; conditions: M14, 48 h
[10] = Cytotoxicity against human SF268 cells assessed as assessed as growth inhibition at 10^-5 M after 48 hrs by SRB assay relative to control; format: functional; conditions: SF-268, 48 h, read-out: GI
[11] = Induction of apoptosis in mouse EAC cells at 375 uM after 24 hrs by acridine orange dye-based fluorescence microscopy (reference value: 0.66 +/- 0.33%); format: cell-based; conditions: ehrlich
[12] = Cytotoxicity against human T47D cells assessed as assessed as growth inhibition at 10^-5 M after 48 hrs by SRB assay relative to control; format: functional; conditions: read-out: GI
[13] = Cytotoxicity against human HCT15 cells assessed as assessed as growth inhibition at 10^-5 M after 48 hrs by SRB assay relative to control; format: functional; conditions: HCT-15, 48 h, read-out: GI
[14] = Cytotoxicity against human ACHN cells assessed as assessed as growth inhibition at 10^-5 M after 48 hrs by SRB assay relative to control; format: functional; conditions: read-out: GI
[15] = Cytotoxicity against human MDA-MB-435 cells assessed as growth inhibition after 48 hrs by SRB assay; format: functional; conditions: MDA-MB-435, 48 h
[16] = Cytotoxicity against human SKOV3 cells assessed as assessed as growth inhibition at 10^-5 M after 48 hrs by SRB assay relative to control; format: functional; conditions: SK-OV-3, 48 h, read-out: GI
[17] = Cytotoxicity against human SN12C cells assessed as growth inhibition after 48 hrs by SRB assay; format: functional
[18] = Cytotoxicity against human MDA-MB-435 cells assessed as assessed as growth inhibition at 10^-5 M after 48 hrs by SRB assay relative to control; format: functional; conditions: MDA-MB-435, 48 h, read-out: GI
[19] = Cytotoxicity against human MDA-MB-468 cells assessed as assessed as growth inhibition at 10^-5 M after 48 hrs by SRB assay relative to control; format: functional; conditions: MDA-MB-468, 48 h, read-out: GI
[20] = Cytotoxicity against human NCI-H522 cells assessed as growth inhibition after 48 hrs by SRB assay; format: functional; conditions: NCI-H522, 48 h
[21] = Cytotoxicity against human K562 cells assessed as growth inhibition after 48 hrs by SRB assay; format: functional; conditions: K562, 48 h
[22] = Cytotoxicity against human SK-MEL-5 cells assessed as assessed as growth inhibition at 10^-5 M after 48 hrs by SRB assay relative to control; format: functional; conditions: SK-MEL-5, 48 h, read-out: GI
[23] = Cytotoxicity against human PC3 cells assessed as growth inhibition after 48 hrs by SRB assay; format: functional; conditions: PC-3, 48 h
[24] = Cytotoxicity against human UACC62 cells assessed as growth inhibition after 48 hrs by SRB assay; format: functional; conditions: UACC-62, 48 h
[25] = Cytotoxicity against human KM12 cells assessed as growth inhibition after 48 hrs by SRB assay; format: functional; conditions: KM12, 48 h
[26] = Cytotoxicity against human PC3 cells assessed as assessed as growth inhibition at 10^-5 M after 48 hrs by SRB assay relative to control; format: functional; conditions: PC-3, 48 h, read-out: GI
[27] = Cytotoxicity against human NCI-H322M cells assessed as assessed as growth inhibition at 10^-5 M after 48 hrs by SRB assay relative to control; format: functional; conditions: read-out: GI
[28] = Cytotoxicity against human SF295 cells assessed as assessed as growth inhibition at 10^-5 M after 48 hrs by SRB assay relative to control; format: functional; conditions: SF-295, 48 h, read-out: GI
[29] = Cytotoxicity against human SW620 cells assessed as growth inhibition after 48 hrs by SRB assay; format: functional; conditions: SW-620, 48 h
[30] = Cytotoxicity against human HOP62 cells assessed as growth inhibition after 48 hrs by SRB assay; format: functional; conditions: HOP-62, 48 h
[31] = Cytotoxicity against human IGROV1 cells assessed as assessed as growth inhibition at 10^-5 M after 48 hrs by SRB assay relative to control; format: functional; conditions: IGROV-1, 48 h, read-out: GI
[32] = Cytotoxicity against human A549 cells assessed as assessed as growth inhibition at 10^-5 M after 48 hrs by SRB assay relative to control; format: functional; conditions: A549, 48 h, read-out: GI
[33] = Cytotoxicity against human TK10 cells assessed as assessed as growth inhibition at 10^-5 M after 48 hrs by SRB assay relative to control; format: functional; conditions: TK-10, 48 h, read-out: GI
[34] = Cytotoxicity against human NCI-H522 cells assessed as assessed as growth inhibition at 10^-5 M after 48 hrs by SRB assay relative to control; format: functional; conditions: NCI-H522, 48 h, read-out: GI
[35] = read-out: LD50 (the source's name)

In the case of `O=C1Cc2cc(CCn3cncn3)c(Cl)cc2N1`, the inhibition of growth at 10 µM [1] is reported as 71%, the GI50 [2] is reported as 1000 nM and the TGI [2] is reported as > 1000 nM. The CC50 [2, 35] was > 1000 nM, the GI50 [3] was 2330 nM and the TGI [3] was > 1000 nM. For the same compound, the CC50 [3, 35] was > 1000 nM, the GI50 [4] was 3200 nM and the TGI [4] was > 1000 nM. The CC50 [4, 35] was > 1000 nM, the inhibition of growth at 10 µM [5] was 76% and the GI50 [6] was 5850 nM. The TGI [6] was > 1000 nM, the CC50 [6, 35] was > 1000 nM and the GI50 [7] was 8350 nM. The TGI [7] was > 1000 nM, the CC50 [7, 35] was > 1000 nM and the GI50 [8] was 1000 nM. The TGI [8] was > 1000 nM, the CC50 [8, 35] was > 1000 nM and the GI50 [9] was 3960 nM. For the same compound, the TGI [9] was > 1000 nM, the CC50 [9, 35] was > 1000 nM and the inhibition of growth at 10 µM [10] was -10.2%. It also gave an Activity [11] of 0.9%, an inhibition of growth at 10 µM [12] of 0.92% and an inhibition of growth at 10 µM [13] of 45.4%. For the same compound, the inhibition of growth at 10 µM [14] was 25.4%, the GI50 [15] was 3220 nM and the TGI [15] was > 1000 nM. The CC50 [15, 35] was > 1000 nM, the inhibition of growth at 10 µM [16] was 20.7% and the GI50 [17] was 1000 nM. For the same compound, the TGI [17] was > 1000 nM, the CC50 [17, 35] was > 1000 nM and the inhibition of growth at 10 µM [18] was 65.6%. For the same compound, the inhibition of growth at 10 µM [19] was 64.9%, the GI50 [20] was 5290 nM and the TGI [20] was > 1000 nM. For the same compound, the CC50 [20, 35] was > 1000 nM, the GI50 [21] was 7680 nM and the TGI [21] was > 1000 nM. For the same compound, the CC50 [21, 35] was > 1000 nM, the inhibition of growth at 10 µM [22] was 59.9% and the GI50 [23] was 1000 nM. The TGI [23] was > 1000 nM, the CC50 [23, 35] was > 1000 nM and the GI50 [24] was 2070 nM. For the same compound, the TGI [24] was > 1000 nM, the CC50 [24, 35] was > 1000 nM and the GI50 [25] was 5420 nM. The TGI [25] was > 1000 nM, the CC50 [25, 35] was > 1000 nM and the inhibition of growth at 10 µM [26] was 13.6%. It also gave an inhibition of growth at 10 µM [27] of 7.87%, an inhibition of growth at 10 µM [28] of 30.7% and a GI50 [29] of 6600 nM. The TGI [29] was > 1000 nM, the CC50 [29, 35] was > 1000 nM and the GI50 [30] was 2990 nM. The TGI [30] was > 1000 nM, the CC50 [30, 35] was > 1000 nM and the inhibition of growth at 10 µM [31] was 15.3%. For the same compound, the inhibition of growth at 10 µM [32] was 40.2%, the inhibition of growth at 10 µM [33] was -21.7% and the inhibition of growth at 10 µM [34] was 67.2%.
